Assay results reported in patent US20210046082A1, “CRYSTALLINE FORMS OF QUINOLINE ANALOGS AND SALTS THEREOF, COMPOSITIONS, AND THEIR METHODS FOR USE” (Senhwa Biosciences, Inc., priority 2019, published 2021).
Converted amounts (≈) assume the structure as drawn. Blank lines part the entries; values can stand above or below the molecule they belong to.

What was measured:
[1] = Polymorph conversion on heating in MeOH/PPW (3:1) under neutral conditions; assay type: physicochemical; conditions: about 60-65° C., 6 hours instead of 4
Procedure: In the procedure discussed in Example 1, the wet cake obtained in the Neutralization/Polymorph Formation step was vacuum dried at no more than 65° C. Then the dried Compound I (dried wet cake) was dissolved in DCM/MeOH (3/1, v/v) and purified on silica gel column eluting with DCM/MeOH (3/1, v/v). The fractions containing Compound I was collected and passed through an in-line filter. Then Compound I was precipitated from DCM/MeOH via solvent-swap with MeOH (under vacuum with the jacket temperature of no more than 30C). After the DCM was distilled off, Compound I in MeOH was filtered and the wet cake was washed with methanol. The wet cake was vacuum dried at no more than 65° C. Then the dried Compound I, which existed in Polymorph E, was stirred in MeOH/PPW (3:1) and heated at about 60° C. to about 65° C. for 4 hours. Then the temperature was cooled down to 20° C. to 30° C. and stirred at that temperature for no longer than 1 hour. […] In the final heating step, if the mixture is heated for 6 hours instead of 4 hours, Polymorph A was observed.
It is believed that Polymorph K was transformed from Polymorph E under neutral conditions. […] Thus, without bound to be any theory, Polymorph K is believe to be a metastable form between Polymorphs E and A.

[2] = Stability test at 25° C./60% RH for 18 months (XRPD, DSC); assay type: physicochemical
Procedure: Further, stability of Polymorph J was analyzed in solution having the composition:
Sample Preparation: 37.5 kg of WFI was added to the compounding vessel at a temperature in the range of 15 to 30° C. Vigorously sparge WFI with nitrogen for no less than 30 minutes by placing the nitrogen sparging tubing at the bottom of the pressure vessel. Continue sparging in the vessel until dissolved oxygen content was <1 ppm. In a second pressure vessel was added 20.0 kg nitrogen sparged WFI and sucrose and mixed until dissolved while continuing nitrogen sparging, not less than 15 minutes. Nitrogen sparging continued as necessary until dissolved oxygen content was <1 ppm of the sucrose solution. To the sucrose solution, 813.8 g of 2 M HCl solution was slowly added and mixed for no less than 10 minutes after addition was complete. Add Compound I into the sucrose solution vessel and rinse container that contained Compound I with nitrogen sparged WFI. Mix solution until dissolved (no less than 15 min). Add 43.5 mL of 2 M HCl and mix for no less than 5 minutes. If solution is not visually dissolved, add another portion of 43.5 mL of 2M HCl and mix for no less than 5 minutes. Adjust pH, if necessary to 4.4-4.6 with 2M HCl or 1M NaOH solution prepared using nitrogen sparged WFI. Mix solution after each addition of 2M HCl or 1M NaOH. Adjust volume with nitrogen-sparged WFI as necessary. Pull a 10 mL sample to measure pH. If necessary, re-adjust pH to 4.4-4.6 using 2M HCl or 1M NaOH solution prepared using nitrogen sparged WFI. Filtration and filling directly proceeded this step. No material was stored overnight. […]
Aseptic filling of the sterile solution: The Compound I sterile solution was filled into 20-cc clean, de-pyrogenated glass vials, with periodic weight checks to assure that the target fill quantity (5.05 g/vial) was maintained, and the vials were semi-stoppered with sterile elastomeric closures to provide the sample for stability analysis.
The sample was stored at 25° C. in 60% relative humidity (RH) for 18 months. After 18 months, the sample was analyzed by XRPD and DSC (see FIGS. 10 and 11).

[3] = Polymorphic equilibrium and transformation study in MeOH/PPW at 65° C. (XRPD); assay type: physicochemical
Procedure: Polymorphic equilibrium studies were performed using Compound I Polymorph A and Compound I Polymorph J. To a 3-neck 250 mL flask equipped with a 3 cm stir bar and N2 inlet, a 1:1 mixture of Compound I Polymorph A (5 g) and Compound I Polymorph J (5 g, sample shown in FIG. 1), MeOH (112.5 mL, 11.25 vol) and purified process water (PPW, 37.5 mL, 3.75 vol) were charged. The resulting mixture was stirred at room temperature for 10 min, and then heated to 65° C. and sampled at 2 hrs, 4 hrs, and 6 hrs and analyzed by XRPD analysis as shown in FIG. 7.
A polymorphic transformation study was also performed. To a 20 mL vial containing a 2 cm stir bar, Compound I Polymorph J (0.5 g, sample shown in FIG. 1), MeOH (5.6 mL, 11.25 vol) and PPW (1.9 mL, 3.75 vol) were charged. The resulting mixture was heated to 65° C. for 6 hrs. Upon completion, the slurry was filtered through a Buchner funnel, and the solid was collected for XRPD analysis as shown in FIG. 8.
As described in Example 1, Polymorph J crystals precipitated out around pH 9-10 during final pH adjustment step to pH 12-13. Polymorph J is then heated to 60° C. to 65° C. in MeOH/PPW (3:1) for approximately 4 hours and maintains its polymorphic form. Thus, substantially pure (polymorphic purity) Polymorph J in MeOH/PPW (3:1) is stable at 65° C. for at least 4 hours.

[4] = Heating of Polymorph J without solvent at 205° C.; assay type: physicochemical; conditions: 30 minutes
[5] = Quick solubility analysis in pH 4.5 buffer; assay type: physicochemical; conditions: pH 4.5 buffer solution (25 mM sodium acetate, 25° C.), filtered, LC, pH changed to 5-6
Procedure: A quick solubility analysis was conducted on Compound I Polymorphs A and J (Table 3). Each sample was suspended in pH 4.5 buffer solution (25 mM sodium acetate, 25° C.) for 10 minutes and then filtered for LC (liquid chromatography) analysis.

metastatic breast cancer = test: Evaluation of predictive biomarkers of response to Compound I in patients; assay type: in vivo, human
Procedure: The duration on therapy at each dose level for evaluable patients is depicted in FIG. 15. 18 patients were diagnosed with metastatic breast cancer. […] This study was conducted to evaluate predictive biomarkers of response to Compound I and to explore the relationship between germline HRD aberrations and outcomes of Compound I treatments.

[6] = test system: BRCA2 knockout tumor cells; test: Xenograft model, BRCA2 knockout vs isogenic wild type; assay type: in vivo; conditions: BRCA2 knockout tumor cells in xenograft model compared with isogenic wild type control cells
BRCA deficient cells = test: Toxicity against BRCA deficient cells; assay type: cell-based; conditions: cell lines of different genetic backgrounds (colon, breast and ovary), mouse and human

Polymorphic conversion upon prolonged heating [1]: converts to Polymorph A
Structure (SMILES): Cc1cnc(CNC(=O)c2c(=O)c3ccc(N4CCCN(C)CC4)nc3n3c2sc2ccccc23)cn1 [Polymorph K, 2-(4-Methyl-[1,4]diazepan-1-yl)-5-oxo-5H-7-thia-1,11b-diaza-benzo[c]fluorene-6-carboxylic acid (5-methyl-pyrazin-2-ylmethyl)-amide]

Time stable on storage [2]: at least 18 months | Shift of second endothermic DSC peak after storage versus initial sample ([2]; 18 months): about 5 °C | Polymorphic form by XRPD after heating ([3]; MeOH/PPW, 65° C., 6 hrs): converted to Polymorph A | Time polymorphic form is stable ([3]; substantially pure Polymorph J in MeOH/PPW (3:1) at 65° C.): at least 4 hours | Crystallinity by XRPD after heating [4]: less crystalline | Solubility ([5]; 10 minutes): 28.6 mg/mL (≈ 55.7 mM)
Structure (SMILES): Cc1cnc(CNC(=O)c2c(=O)c3ccc(N4CCCN(C)CC4)nc3n3c2sc2ccccc23)cn1 [Polymorph J, 2-(4-Methyl-[1,4]diazepan-1-yl)-5-oxo-5H-7-thia-1,11b-diaza-benzo[c]fluorene-6-carboxylic acid (5-methyl-pyrazin-2-ylmethyl)-amide]
XRPD pattern after storage ([2]; 18 months): substantially similar to the XRPD pattern of the initial sample

solubility at 10 min ([5]; sodium acetate buffer, 25 °C, pH 4.5, aqueous buffer, thermodynamic from solid): 29.3 mg/mL (≈ 57 mM)
Structure (SMILES): Cc1cnc(CNC(=O)c2c(=O)c3ccc(N4CCCN(C)CC4)nc3n3c2sc2ccccc23)cn1 [Polymorph A, 2-(4-Methyl-[1,4]diazepan-1-yl)-5-oxo-5H-7-thia-1,11b-diaza-benzo[c]fluorene-6-carboxylic acid (5-methyl-pyrazin-2-ylmethyl)-amide]
Relative thermodynamic stability of polymorphs ([3]; MeOH/PPW, 65° C.): more thermodynamically stable than Polymorph J

Structure (SMILES): Cc1cnc(CNC(=O)c2c(=O)c3ccc(N4CCCN(C)CC4)nc3n3c2sc2ccccc23)cn1 [Compound I, 2-(4-Methyl-[1,4]diazepan-1-yl)-5-oxo-5H-7-thia-1,11b-diaza-benzo[c]fluorene-6-carboxylic acid (5-methyl-pyrazin-2-ylmethyl)-amide]
Response to treatment (metastatic breast cancer; patient with PALB2 mutation and BRCA2 mutation, 650 mg/m^2 on Day 1, Day 8, Day 15 of a 28 day cycle): partial response (PR) | Tumor shrinkage (metastatic breast cancer; patients with BRCA2 mutation, dose greater than or equal to 150 mg/m^2): tumor shrinkage were observed | Therapeutic index of activity [6]: wide therapeutic index of activity | Toxicity against BRCA deficient cells (BRCA deficient cells): specific toxicity against BRCA deficient cells
